Each molecule was assayed against T1, Nuclear factor erythroid 2-related factor 2 (Mus musculus) (UniProt Q60795) (assay: Activation of Nrf2 in mouse Hepa-1c1c7 cells assessed as concentration required to double specific activity of NQO1 incubated for 48 hrs).
T1 sequence (whole entry): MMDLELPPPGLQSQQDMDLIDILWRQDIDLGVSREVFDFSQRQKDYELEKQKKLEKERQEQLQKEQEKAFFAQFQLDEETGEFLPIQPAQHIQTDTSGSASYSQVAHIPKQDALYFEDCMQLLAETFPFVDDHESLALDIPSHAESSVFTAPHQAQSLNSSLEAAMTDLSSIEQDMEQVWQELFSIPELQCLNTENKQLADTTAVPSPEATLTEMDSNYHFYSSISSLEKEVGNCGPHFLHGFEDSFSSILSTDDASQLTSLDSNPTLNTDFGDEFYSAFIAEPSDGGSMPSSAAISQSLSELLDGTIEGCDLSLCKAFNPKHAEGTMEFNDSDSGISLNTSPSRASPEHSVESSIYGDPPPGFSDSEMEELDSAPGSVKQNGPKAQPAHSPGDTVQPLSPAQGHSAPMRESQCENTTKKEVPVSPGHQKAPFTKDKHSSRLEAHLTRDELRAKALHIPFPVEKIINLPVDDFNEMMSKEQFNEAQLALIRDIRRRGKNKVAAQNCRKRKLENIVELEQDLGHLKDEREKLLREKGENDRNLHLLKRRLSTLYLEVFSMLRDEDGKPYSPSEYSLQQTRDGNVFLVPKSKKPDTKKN
Type: cell-based

SMILES | pCD
C#CC12C=C(C#N)C(=O)C=C1CCC2 (configuration not stated) | 7.25
C#CC1(C)C=C(C#N)C(=O)CC1 (configuration not stated) | 7
C#CC1(CC)C=CC(=O)C(C#N)=C1 (configuration not stated) | 7.38
CC1(C)C=CC(=O)C(C#N)=C1 | 6.82
C=C[C@]12C=C(C#N)C(=O)C=C1[C@@]1(C)C=C(C#N)C(=O)C(C)(C)[C@@H]1CC2 | 7.52
CC1(C)C(=O)C(C#N)=C[C@]2(C)C3=CC(=O)C(C#N)=C[C@]3(C)CC[C@@H]12 | 7.74
CC1(C)C=C(C#N)C(=O)C(C)(C)C1 | 5.72
C#CC1(C#C)C=CC(=O)C(C#N)=C1 | 6.74
CC#CC1(C)C=CC(=O)C(C#N)=C1 (configuration not stated) | 7.48
C#C[C@]12C=C(C#N)C(=O)C=C1[C@@]1(C)C=C(C#N)C(=O)C(C)(C)[C@@H]1CC2 | 9.04
C#CC1(C=C)C=CC(=O)C(C#N)=C1 (configuration not stated) | 7.7
C=CC1(C)C=CC(=O)C(C#N)=C1 (configuration not stated) | 6.82
CC#C[C@]12C=C(C#N)C(=O)C=C1[C@@]1(C)C=C(C#N)C(=O)C(C)(C)[C@@H]1CC2 | 8.12
C#CC1(C)C=CC(=O)C(C#N)=C1 (configuration not stated) | 7.67
C#CC12C=C(C#N)C(=O)C=C1C(C)(C)CC2 (configuration not stated) | 7
CC[C@]12C=C(C#N)C(=O)C=C1[C@@]1(C)C=C(C#N)C(=O)C(C)(C)[C@@H]1CC2 | 7.74
CC1(C)C(=O)C(C#N)=C[C@]2(C)C3=CC(=O)C=C[C@]3(C)CC[C@@H]12 | 6.8
